Assay results reported in article PMC11742280, “A phase I study of MLN4924 and belinostat in relapsed/refractory acute myeloid leukemia or myelodysplastic syndrome” (Cancer Chemotherapy and Pharmacology, 2025).
Read-outs that look alike come from different tables or passages of the source. Blank lines part the entries; values can stand above or below the compound they belong to.

Key:
[1] = in vivo
Procedure: (§1) Belinostat was administered by a 30 min intravenous (IV) infusion on days 1 through 5 of each cycle; pevonedistat was administered by a 60 min IV infusion on days 1, 3 and 5 immediately after belinostat. The treatments were repeated on 21-day cycles until disease progression or unacceptable toxicity. […] The regimen was administered on an outpatient basis.
(§2) Blood samples for measurement of plasma concentrations were collected on day 1 of cycle 1 for both belinostat and pevonedistat. Belinostat, PK samples were collected pretreatment, 5 min prior to the end of the infusion, and at 0.25, 0.5, 1, 2, 4, 6, 8, and 24 h after the end of the infusion. Pevonedistat, PK samples were collected pretreatment and 0.5, 1, 2, 2.5, 5, and 24 h after the start of the infusion. Plasma was stored at − 80 °C until analysis. […] Concentrations of belinostat were determined over the range of 30–5000 ng/mL with dilutions of up to 1:100 v/v using a validated LC/MS/MS method at the Analytical Pharmacology Core Laboratory at the Sidney Kimmel Comprehensive Cancer Center at Johns Hopkins [33].
(§3) Pharmacokinetic parameters were calculated from individual concentration–time data using standard noncompartmental methods as implemented in Phoenix WinNonlin version 8.2 (Pharsight A Certara Company, Cary, North Carolina). Pharmacokinetic parameters were summarized using descriptive statistics. Differences between the pharmacokinetic parameters between dose levels or BSA-based dose were evaluated statistically via the nonparametric Kruskal–Wallis test. All statistical tests were performed using JMP Statistical Discovery software (version 7; SAS Institute, Cary, NC).

[2] = test system: relapsed/refractory AML and myelodysplastic syndrome; set-up: method as in PMID 24369094, PMID 21538061; details: some patients; cited from earlier work
[3] = set-up: method as in PMID 31097586, PMID 33441097; details: e.g. value, compared with clinical Cmax; cited from earlier work
[4] = Plasma pharmacokinetics of belinostat and belinostat glucuronide (LC/MS/MS, noncompartmental analysis)
Procedure: as §1, §2, §3

high-risk MDS = test system: high-risk MDS; set-up: method as in PMID 35728048; details: comparator (azacitidine without pevonedistat); subset with high-risk MDS, post-hoc analysis; cited from earlier work
[5] = cycle 1 day 1, dose level 1, belinostat 800 mg/m^2 IV (pevonedistat 20 mg/m^2), n=2, actual values
[6] = cycle 1 day 1, dose level 3, belinostat 800 mg/m^2 IV (pevonedistat 37 mg/m^2), n=2, actual values

Pharmacokinetic parameters compared between dose levels [1]: not different by dose level
SMILES: O=C(/C=C/c1cccc(S(=O)(=O)Nc2ccccc2)c1)NO[C@@H]1O[C@H](C(=O)O)[C@@H](O)[C@H](O)[C@H]1O [Belinostat glucuronide]

Belinostat clearance by BSA-based dose ([4]; 1000 mg/m^2 compared with 800 mg/m^2, p = 0.05, Kruskal–Wallis): significantly higher
AUCINF [4, 5]: 75.2 µM·h
Cl (systemic clearance) [4, 5]: 87.5 L/h
T1/2 [4, 5]: 40.2 min
Tmax ([4]; cycle 1 day 1, dose level 2, belinostat 800 mg/m^2 IV (pevonedistat 25 mg/m^2), median (range; n)): 0.5 (0.4–0.5; 3) h
Tmax ([4]; cycle 1 day 1, dose level 3, belinostat 800 mg/m^2 IV (pevonedistat 37 mg/m^2), median (range; n)): 0.4 (0.4–0.5; 3) h
AUCINF [4, 6]: 87.4 µM·h
Cl (systemic clearance) [4, 6]: 82.4 L/h
T1/2 [4, 6]: 87.6 min
Pharmacokinetic parameters compared between dose levels ([4]; dose levels 1-5, Kruskal–Wallis): not different by dose level
Tmax ([4]; human, plasma, iv): 30 min
AUC(0-inf) ([4]; human, plasma, iv, 800 mg/m2, AUCINF, cycle 1 day 1, belinostat 800 mg/m^2 IV, all 800 mg/m^2 patients (dose levels 1-3), mean±SD, n=7): 67.5 ± 19.1 µM·h
clearance ([4]; human, plasma, iv, 800 mg/m2, Cl (systemic clearance), cycle 1 day 1, belinostat 800 mg/m^2 IV, all 800 mg/m^2 patients (dose levels 1-3), mean±SD, n=7): 1290 mL/min
half-life ([4]; human, plasma, iv, 800 mg/m2, T1/2, cycle 1 day 1, belinostat 800 mg/m^2 IV, all 800 mg/m^2 patients (dose levels 1-3), mean±SD, n=7): 67.8 ± 30 min
AUC(0-inf) ([4]; human, plasma, iv, 1000 mg/m2, AUCINF, cycle 1 day 1, belinostat 1000 mg/m^2 IV, all 1000 mg/m^2 patients (dose levels 4-5), mean±SD, n=7): 51.6 ± 25.8 µM·h
clearance ([4]; human, plasma, iv, 1000 mg/m2, Cl (systemic clearance), cycle 1 day 1, belinostat 1000 mg/m^2 IV, all 1000 mg/m^2 patients (dose levels 4-5), mean±SD, n=7): 2180 mL/min
half-life ([4]; human, plasma, iv, 1000 mg/m2, T1/2, cycle 1 day 1, belinostat 1000 mg/m^2 IV, all 1000 mg/m^2 patients (dose levels 4-5), mean±SD, n=7): 53.4 ± 18 min
Cmax ([4]; human, plasma, iv, 1000 mg/m2, preEOI Cmax (peak plasma concentration), cycle 1 day 1, belinostat 1000 mg/m^2 IV, all 1000 mg/m^2 patients (dose levels 4-5), mean±SD, n=7): 104 ± 37.8 µM
AUC(0-inf) ([4]; human, plasma, iv, AUCINF, cycle 1 day 1, dose level 1, belinostat 800 mg/m^2 IV (pevonedistat 20 mg/m^2), n=2, actual values): 54.6 µM·h
AUC(0-inf) ([4]; human, plasma, iv, AUCINF, cycle 1 day 1, dose level 2, belinostat 800 mg/m^2 IV (pevonedistat 25 mg/m^2), mean±SD, n=3): 64.7 ± 27.4 µM·h
AUC(0-inf) ([4]; human, plasma, iv, AUCINF, cycle 1 day 1, dose level 3, belinostat 800 mg/m^2 IV (pevonedistat 37 mg/m^2), n=2, actual values): 61 µM·h
AUC(0-inf) ([4]; human, plasma, iv, AUCINF, cycle 1 day 1, dose level 4, belinostat 1000 mg/m^2 IV (pevonedistat 37 mg/m^2), mean±SD, n=3): 60.3 ± 39.2 µM·h
AUC(0-inf) ([4]; human, plasma, iv, AUCINF, cycle 1 day 1, dose level 5, belinostat 1000 mg/m^2 IV (pevonedistat 50 mg/m^2), mean±SD, n=4): 45.1 ± 13.4 µM·h
clearance ([4]; human, plasma, iv, Cl (systemic clearance), cycle 1 day 1, dose level 1, belinostat 800 mg/m^2 IV (pevonedistat 20 mg/m^2), n=2, actual values): 1000 mL/min
clearance ([4]; human, plasma, iv, Cl (systemic clearance), cycle 1 day 1, dose level 2, belinostat 800 mg/m^2 IV (pevonedistat 25 mg/m^2), mean±SD, n=3): 1380 mL/min
clearance ([4]; human, plasma, iv, Cl (systemic clearance), cycle 1 day 1, dose level 3, belinostat 800 mg/m^2 IV (pevonedistat 37 mg/m^2), n=2, actual values): 1030 mL/min
clearance ([4]; human, plasma, iv, Cl (systemic clearance), cycle 1 day 1, dose level 4, belinostat 1000 mg/m^2 IV (pevonedistat 37 mg/m^2), mean±SD, n=3): 2020 mL/min
clearance ([4]; human, plasma, iv, Cl (systemic clearance), cycle 1 day 1, dose level 5, belinostat 1000 mg/m^2 IV (pevonedistat 50 mg/m^2), mean±SD, n=4): 2300 mL/min
half-life ([4]; human, plasma, iv, T1/2, cycle 1 day 1, dose level 1, belinostat 800 mg/m^2 IV (pevonedistat 20 mg/m^2), n=2, actual values): 35.4 min
half-life ([4]; human, plasma, iv, T1/2, cycle 1 day 1, dose level 2, belinostat 800 mg/m^2 IV (pevonedistat 25 mg/m^2), mean±SD, n=3): 81.6 ± 36.6 min
half-life ([4]; human, plasma, iv, T1/2, cycle 1 day 1, dose level 3, belinostat 800 mg/m^2 IV (pevonedistat 37 mg/m^2), n=2, actual values): 67.2 min
half-life ([4]; human, plasma, iv, T1/2, cycle 1 day 1, dose level 4, belinostat 1000 mg/m^2 IV (pevonedistat 37 mg/m^2), mean±SD, n=3): 61.2 ± 26.4 min
half-life ([4]; human, plasma, iv, T1/2, cycle 1 day 1, dose level 5, belinostat 1000 mg/m^2 IV (pevonedistat 50 mg/m^2), mean±SD, n=4): 47.4 ± 7.2 min
Cmax ([4]; human, plasma, iv, preEOI Cmax (peak plasma concentration), cycle 1 day 1, dose level 1, belinostat 800 mg/m^2 IV (pevonedistat 20 mg/m^2), n=2, actual values): 109 µM
Cmax ([4]; human, plasma, iv, preEOI Cmax (peak plasma concentration), cycle 1 day 1, dose level 2, belinostat 800 mg/m^2 IV (pevonedistat 25 mg/m^2), mean±SD, n=3): 120 ± 50.3 µM
Cmax ([4]; human, plasma, iv, preEOI Cmax (peak plasma concentration), cycle 1 day 1, dose level 4, belinostat 1000 mg/m^2 IV (pevonedistat 37 mg/m^2), mean±SD, n=4): 96.5 ± 46 µM
Cmax ([4]; human, plasma, iv, preEOI Cmax (peak plasma concentration), cycle 1 day 1, dose level 5, belinostat 1000 mg/m^2 IV (pevonedistat 50 mg/m^2), mean±SD, n=3): 114 ± 29.4 µM
Cmax ([4]; read-out: preEOI Cmax (peak plasma concentration), cycle 1 day 1, belinostat 800 mg/m^2 IV, all 800 mg/m^2 patients (dose levels 1-3), mean±SD, n=8): 123 ± 34.3 µM
Cmax ([4]; read-out: preEOI Cmax (peak plasma concentration), cycle 1 day 1, dose level 1, belinostat 800 mg/m^2 IV (pevonedistat 20 mg/m^2), n=2, actual values): 144 µM
Cmax ([4]; read-out: preEOI Cmax (peak plasma concentration), cycle 1 day 1, dose level 3, belinostat 800 mg/m^2 IV (pevonedistat 37 mg/m^2), mean±SD, n=3): 125 ± 35 µM
SMILES: O=C(/C=C/c1cccc(S(=O)(=O)Nc2ccccc2)c1)NO [Belinostat]
Single-agent clinical activity [2]: stable disease over several months
Concentrations shown to exert activity in preclinical studies [3]: 100 to 200 nM

SMILES: Nc1ncn([C@@H]2O[C@H](CO)[C@@H](O)[C@H]2O)c(=O)n1 [azacitidine]
Survival (high-risk MDS): 20.6 mos
